# Source: patent US20040058380A1 (priority 2002, published 2004)
# Where two headings read alike, the source gives them in different places.
# Key:
# [1] = not given; remark: listed apart in the source
# [2] = not given; remark: listed apart in the source
# [3] = not given; remark: listed apart in the source
molecule,measurement,setting,value
NC(Cc1c[nH]c2ccccc12)C(=O)O (racemic) [DL-tryptophan],potentiometric selectivity coefficient of DPA sensor (j: interference),,2.22 × 10^−3
O=C(O)C[C@@H](O)C(=O)O [D(+)-malic acid],potentiometric selectivity coefficient of DPA sensor (j: interference),,35.56
"O=C(O)c1cccc(C(=O)O)n1 [DPA, pyridine-2,6-dicarboxylic acid]",DPA adsorbed in the sensor concentrated versus control,pH 7.2,23 times
O=P(O)(O)O [H3PO4],potentiometric selectivity coefficient of MPA sensor to interferences,[1],7.5×10^−3
N[C@@H](Cc1ccc(O)cc1)C(=O)O [L-tyrosine],potentiometric selectivity coefficient of DPA sensor (j: interference),,2.22 × 10^−3
O=C(O)C[C@@H](NC(=O)OCc1ccccc1)C(=O)O [N-CBZ-D-Asp],potentiometric selectivity coefficient for L-isomer in the presence of D-isomer,[2],9×10^−3
same,potentiometric selectivity coefficient for N-CBZ-L-Asp with respect to N-CBZ-D-Asp,[2]; pH 6.8,0.08
same,D-Asp sensor output,[3]; 0.20 mM,47 Mv
same,D-Asp sensor output,[3]; 0.33 mM,55 Mv
same,D-Asp sensor output,[3]; 0.50 mM,62 Mv
same,D-Asp sensor output,[3]; 0.64 mM,68 Mv
same,D-Asp sensor output,[3]; 0.79 mM,71 Mv
same,D-Asp sensor output,[3]; 0.93 mM,76 Mv
same,D-Asp sensor output,[3]; 1.49 mM,100 Mv
same,D-Asp sensor output,[3]; 2.79 mM,158 Mv
same,D-Asp sensor output,[3]; 4.09 mM,192 Mv
same,D-Asp sensor output,[3]; 5.32 mM,203 Mv
O=C(O)C[C@H](NC(=O)OCc1ccccc1)C(=O)O [N-CBZ-L-Asp],L-Asp sensor output,[2]; 0.095 mM,37 mV
same,L-Asp sensor output,[2]; 0.20 mM,49 mV
same,L-Asp sensor output,[2]; 0.33 mM,59 mV
same,L-Asp sensor output,[2]; 0.50 mM,65 mV
same,L-Asp sensor output,[2]; 0.64 mM,72 mV
same,L-Asp sensor output,[2]; 0.79 mM,78 mV
same,L-Asp sensor output,[2]; 0.93 mM,84 mV
same,L-Asp sensor output,[2]; 1.49 mM,114 mV
same,L-Asp sensor output,[2]; 2.79 mM,172 mV
same,L-Asp sensor output,[2]; 4.09 mM,205 mV
same,L-Asp sensor output,[2]; 5.32 mM,222 mV
same,potentiometric selectivity coefficient for D-isomer in the presence of L-isomer,[3],4×10^−3
COC(=O)C=C(C)OP(=O)(OC)OC [phosdrin],potentiometric selectivity coefficient of MPA sensor to interferences,[1],3.33 × 10^−4
Cc1cc2nc3c(=O)[nH]c(=O)nc-3n(C[C@H](O)[C@H](O)[C@H](O)CO)c2cc1C [riboflavin],potentiometric selectivity coefficient of DPA sensor (j: interference),,7.78
CaCO3,potentiometric selectivity coefficient of DPA sensor (j: interference),,2.22
K2HPO4,potentiometric selectivity coefficient of DPA sensor (j: interference),,4.44
KCl,potentiometric selectivity coefficient of DPA sensor (j: interference),,44.4
NaCl,potentiometric selectivity coefficient of DPA sensor (j: interference),,20
